Assay results taken from patent publication US20130190289A1, “COMPOUNDS AND METHODS FOR THE TREATMENT OR PREVENTION OF FLAVIVIRUS INFECTIONS” (priority 2010, published 2013).
Where two headings read alike, the source gives them in different places.

Assays:
[1] = [3H]Thymidine incorporation assay (cell toxicity); settings: human
[2] = tested on: HCV replicon (genotype 1b) in Huh7 cell line ET; assay: microbe, parasite or virus in culture; type: cell-based, HCV genotype 1b; settings: Hepatitis C virus
[3] = Huh-7, read-out: HCV-Replicon-(Luci-ET) 1b_IC50
[4] = Huh-7, 96 h, read-out: HCV-Replicon (Luci-ET)-1b_IC50

Row | SMILES | CC50 at 72 h [1] [µM] | IC50 [2, 3] [nM] | IC50 [2, 4] [nM]
1 | CC1COCCN1C(=O)[C@H](C)N(c1cc(C#CC(C)(C)C)sc1C(=O)O)C(=O)[C@H]1CC[C@H](C)CC1 (stereo partly drawn) [Compound 47, 5-(3,3-dimethylbut-1-ynyl)-3-[(trans-4-methylcyclohexanecarbonyl)-[(1S)-1-methyl-2-(3-methylmorpholin-4-yl)-2-oxo-ethyl]amino]thiophene-2-carboxylic acid] | > 100 | < 100 | –
2 | C[C@@H](C(=O)N1CC[C@H](O)C1)N(c1cc(C#CC(C)(C)C)sc1C(=O)O)C(=O)[C@H]1CC[C@H](C)CC1 [Compound 29, 5-(3,3-Dimethylbut-1-ynyl)-3-[[(1S)-2-[(3S)-3-hydroxypyrrolidin-1-yl]-1-methyl-2-oxo-ethyl]-(trans-4-methylcyclohexanecarbonyl)amino]thiophene-2-carboxylic acid] | > 100 | < 100 | –
3 | COC1CCN(C(=O)C[C@H](C)N(c2cc(C#CC(C)(C)C)sc2C(=O)O)C(=O)[C@H]2CC[C@H](C)CC2)CC1 [Compound 115, 5-(3,3-Dimethylbut-1-ynyl)-3-[[(1S)-3-(4-methoxy-1-piperidyl)-1-methyl-3-oxo-propyl]-(trans-4-methylcyclohexanecarbonyl)amino]thiophene-2-carboxylic acid] | > 100 | < 100 | –
4 | C[C@@H]1CN(C(=O)[C@H](C)N(c2cc(C#CC(C)(C)C)sc2C(=O)O)C(=O)[C@H]2CC[C@H](C)CC2)C[C@H](C)O1 [Compound 48, 5-(3,3-Dimethylbut-1-ynyl)-3-[[(1S)-2-[(2R,6S)-2,6-dimethylmorpholin-4-yl]-1-methyl-2-oxo-ethyl]-(trans-4-methylcyclohexanecarbonyl)amino]thiophene-2-carboxylic acid] | 10 to 100 | < 100 | –
5 | COC[C@H](C(=O)N(C)C)N(c1cc(C#CC(C)(C)C)sc1C(=O)O)C(=O)[C@H]1CC[C@H](C)CC1 [Compound 22, 3-[[(1R)-2-(dimethylamino)-1-(methoxymethyl)-2-oxo-ethyl]-(trans-4-methylcyclohexanecarbonyl)amino]-5-(3,3-dimethylbut-1-ynyl)thiophene-2-carboxylic acid] | > 100 | < 100 | –
6 | CC(C)(C)C#Cc1cc(N(CC(=O)N2CCCCC2)C(=O)[C@H]2CC[C@H](C)CC2)c(C(=O)O)s1 [Compound 46] | > 100 | < 100 | –
7 | CC(C)(C)C#Cc1cc(N(CC(=O)N2CCOCC2)C(=O)c2ccc(Cl)cc2)c(C(=O)O)s1 [Compound 123, 3-[(4-chlorobenzoyl)-(2-morpholino-2-oxo-ethyl)amino]-5-(3,3-dimethylbut-1-ynyl)thiophene-2-carboxylic acid] | > 100 | – | < 100
8 | CNC(=O)CN(C(=O)C1CCC(C)CC1)c1cc(C#CC(C)C)sc1C(=O)O (stereo not drawn) [Compound 70] | > 100 | < 100 | –
9 | CC[C@@H](C(=O)N(C)C1CCN(C)CC1)N(c1cc(C#CC(C)(C)C)sc1C(=O)O)C(=O)[C@H]1CC[C@H](C)CC1 [Compound 76, 5-(3,3-Dimethylbut-1-ynyl)-3-[(trans-4-methylcyclohexanecarbonyl)-[(1S)-1-[methyl-(1-methyl-4-piperidyl)carbamoyl]propyl]amino]thiophene-2-carboxylic acid] | 10 to 100 | < 100 | –
10 | C[C@H]1CC[C@H](C(=O)N(CC(=O)N2CCOCC2)c2cc(-c3ccccc3)sc2C(=O)O)CC1 [Compound 121, 3-[(trans-4-methylcyclohexanecarbonyl)-N-(2-morpholino-2-oxoethyl)amino]-5-phenylthiophene-2-carboxylic acid] | > 100 | – | 1000 to 10000
11 | CCN1CCCC[C@H](N(C(=O)c2ccc(Cl)cc2Cl)c2cc(C#CC(C)(C)C)sc2C(=O)O)C1=O [Compound 135, (S)-5-(3,3-dimethylbut-1-ynyl)-3-[(2,4-dichlorobenzoyl)-N-(1-ethyl-2-oxoazepan-3-yl)amino]-thiophene-2-carboxylic acid] | > 100 | – | < 100
12 | COC[C@@H](C(=O)N1CCCC1)N(C(=O)C1CCCCC1)c1cc(C#CC(C)(C)C)sc1C(=O)O [Compound 36, 3-[Cyclohexanecarbonyl-[(1S)-1-(methoxymethyl)-2-oxo-2-pyrrolidin-1-yl-ethyl]amino]-5-(3,3-dimethylbut-1-ynyl)thiophene-2-carboxylic acid] | > 100 | 100 to 1000 | –
13 | CC(C)(C)C#Cc1cc(N(CC(=O)N2CCSCC2)C(=O)[C@H]2CC[C@H](C)CC2)c(C(=O)O)s1 [Compound 127, 5-(3,3-dimethylbut-1-ynyl)-3-[(trans-4-methylcyclohexanecarbonyl)-(2-oxo-2-thiomorpholino-ethyl)amino]thiophene-2-carboxylic acid] | 10 to 100 | – | < 100
14 | C[C@@H](CC(=O)N1CCN(C)CC1)N(c1cc(C#CC(C)(C)C)sc1C(=O)O)C(=O)[C@H]1CC[C@H](C)CC1 [Compound 110, 5-(3,3-Dimethylbut-1-ynyl)-3-[(trans-4-methylcyclohexanecarbonyl)-[(1S)-1-methyl-3-(4-methylpiperazin-1-yl)-3-oxo-propyl]amino]thiophene-2-carboxylic acid] | > 100 | < 100 | –
15 | C[C@H]1CC[C@H](C(=O)N(CC(=O)N2CCOCC2)c2cc(-c3ccc(Oc4ccccc4)cc3)sc2C(=O)O)CC1 [Compound 151, 3-[(trans-4-methylcyclohexanecarbonyl)-(2-morpholino-2-oxo-ethyl)amino]-5-(4-phenoxyphenyl)thiophene-2-carboxylic acid] | 10 to 100 | – | 100 to 1000
16 | C[C@H]1CC[C@H](C(=O)N(CC(=O)N2CCOCC2)c2cc(C#CC3CC3)sc2C(=O)O)CC1 [Compound 128, 5-(2-cyclopropylethynyl)-3-[(trans-4-methylcyclohexanecarbonyl)-(2-morpholino-2-oxo-ethyl)amino]thiophene-2-carboxylic acid] | > 100 | – | < 100
17 | C[C@@H](C(=O)NC1CCOC1)N(c1cc(C#CC(C)(C)C)sc1C(=O)O)C(=O)[C@H]1CC[C@H](C)CC1 (stereo partly drawn) [Compound 30, 5-(3,3-Dimethylbut-1-ynyl)-3-[(trans-4-methylcyclohexanecarbonyl)-[(1S)-1-methyl-2-oxo-2-(tetrahydrofuran-3-ylamino)ethyl]amino]thiophene-2-carboxylic acid] | > 100 | < 100 | –
18 | C[C@@H](C(=O)NC1CCOCC1)N(c1cc(C#CC(C)(C)C)sc1C(=O)O)C(=O)[C@H]1CC[C@H](C)CC1 [Compound 19, 5-(3,3-Dimethylbut-1-ynyl)-3-[(trans-4-methylcyclohexanecarbonyl)-[(1S)-1-methyl-2-oxo-2-(tetrahydropyran-4-ylamino)ethyl]amino]thiophene-2-carboxylic acid] | > 100 | < 100 | –
19 | CCC[C@@H](C(=O)N(C)C)N(c1cc(C#CC(C)(C)C)sc1C(=O)O)C(=O)[C@H]1CC[C@H](C)CC1 [Compound 68, 5-(3,3-Dimethylbut-1-ynyl)-3-[[(1S)-1-(dimethylcarbamoyl)butyl]-(trans-4-methylcyclohexanecarbonyl)amino]thiophene-2-carboxylic acid] | 10 to 100 | < 100 | –
20 | C[C@H](C(=O)N(C)C)N(c1cc(C#CC(C)(C)C)sc1C(=O)O)C(=O)[C@H]1CC[C@H](C)CC1 [Compound 2, 5-(3,3-Dimethyl-but-1-ynyl)-3-[((R)-1-dimethylcarbamoyl-ethyl)-(trans-4-methyl-cyclohexanecarbonyl)-amino]-thiophene-2-carboxylic acid] | 10 to 100 | < 100 | –
21 | CN1CCOC[C@H](N(C(=O)c2ccc(Cl)cc2Cl)c2cc(C#CC(C)(C)C)sc2C(=O)O)C1=O [Compound 147, (S)-5-(3,3-Dimethylbut-1-ynyl)-3-[(2,4-dichlorobenzoyl)-N-(4-methyl-5-oxo-1,4-oxazepan-6-yl)amino]thiophene-2-carboxylic acid] | > 100 | – | 100 to 1000
22 | CC(C)C#Cc1cc(N(CC(=O)N(C)C)C(=O)C2CCC(C)CC2)c(C(=O)O)s1 (stereo not drawn) [Compound 67] | > 100 | < 100 | –
23 | CCN(CC)C(=O)[C@H](C)N(c1cc(C#CC(C)(C)C)sc1C(=O)O)C(=O)[C@H]1CC[C@H](C)CC1 [Compound 8, 3-[[(1S)-2-(diethylamino)-1-methyl-2-oxo-ethyl]-(trans-4-methylcyclohexanecarbonyl)amino]-5-(3,3-dimethylbut-1-ynyl)thiophene-2-carboxylic acid] | > 100 | < 100 | –
24 | COC1CCN(C(=O)CN(c2cc(C#CC(C)(C)C)sc2C(=O)O)C(=O)[C@H]2CC[C@H](C)CC2)CC1 [Compound 44] | > 100 | < 100 | –
25 | CN1CCC[C@H](N(c2cc(C#CC(C)(C)C)sc2C(=O)O)C(=O)[C@H]2CC[C@H](C)CC2)C1=O [Compound 117, 5-(3,3-dimethylbut-1-yn-1-yl)-3-(trans-4-methyl-N—((S)-1-methyl-2-oxopiperidin-3-yl)cyclohexanecarboxamido)thiophene-2-carboxylic acid] | > 100 | < 100 | –
26 | CC[C@@H](C(=O)N(C)C)N(c1cc(C#CC(C)C)sc1C(=O)O)C(=O)[C@H]1CC[C@H](C)CC1 [Compound 89, 3-[[(1S)-1-(dimethylcarbamoyl)propyl]-(trans-4-methylcyclohexanecarbonyl)amino]-5-(3-methylbut-1-ynyl)thiophene-2-carboxylic acid] | > 100 | < 100 | –
27 | COC1CCN(C(=O)[C@H](C)N(c2cc(C#CC(C)(C)C)sc2C(=O)O)C(=O)[C@H]2CC[C@H](C)CC2)CC1 [Compound 53, 5-(3,3-Dimethylbut-1-ynyl)-3-[[(1S)-2-(4-methoxy-1-piperidyl)-1-methyl-2-oxo-ethyl]-(trans-4-methylcyclohexanecarbonyl)amino]thiophene-2-carboxylic acid] | > 100 | < 100 | –
